# Results published in US20240307350A1, “5-METHOXY-N,N-DIMETHYLTRYPTAMINE (5-MEO-DMT) FOR TREATING DEPRESSION” (GH RESEARCH IRELAND LIMITED, priority 2019, published 2024).
# Tested on: patients with treatment-resistant major depressive disorder
# Test: Clinical trial in treatment-resistant major depressive disorder: symptom scales (MADRS, PGI-S, PGI-I, C-SSRS, BPRS)
# Type: in vivo, human
# Settings: for PGI-I: 1, Very much improved, 2, Much improved, to 7, Very much worse; for MADRS suicidal thoughts item: ranges from 0 to 6; for BPRS Unusual thought content / BPRS Somatic concern / BPRS Tension / BPRS Guilt feelings / BPRS Depressive Mood / BPRS Anxiety: scale of 1-7; for PGI-S: 1, Normal, not at all ill to 7, Extremely ill; for MADRS: score 0 to 60; for BPRS (total): 18 symptoms each rated 1-7; for C-SSRS Suicidal Ideation: whether any of the suicidal ideation items were present
# Procedure: A clinical trial was performed in which 5-MeO-DMT free base (purity not less than 99%) was administered to patients with treatment-resistant major depressive disorder (TRD). The objectives of the study were to assess the safety and tolerability, the dose-related psychedelic effects and the effects on various measures of depression of single-day dosing of 5-MeO-DMT. The trial was reviewed and approved by the relevant national competent authority and local medical ethics committee. Patients recruited into the trial had to meet the Diagnostic and Statistical Manual of Mental Disorders-Fifth Edition (DSM-5) diagnostic criteria for single-episode or recurrent major depressive disorder and had to be treatment-resistant, both aspects as evaluated by a psychiatrist or registered psychologist. Patients who were using any psychoactive medication or substance (such as anti-depressive medication) had to discontinue such medication or substance and had to observe a wash-out period before the 5-MeO-DMT administration. On the administration day, a single dose of 12 mg 5-MeO-DMT was administered to the patients via a single inhalation as described in Example 1A. Patients were closely monitored for 3.5 hours after administration, with additional follow-up visits 1 day and 7 days after dosing. Various safety related measures (e.g., adverse event reporting, safety laboratory analyses, vital signs, electrocardiogram (ECG), Clinician Administered Dissociative States Scale (CADSS), Psychomotor Vigilance Test (PVT), Digit Symbol Substitution Test (DSST)), measures of the intensity of the psychedelic effects (e.g., Peak Psychedelic Experience Questionnaire (PPEQ), Altered States of Consciousness (ASC) Questionnaire, Mystical Experience Questionnaire (MEQ30), subjective description of the psychedelic experience), measures of depression severity (Montgomery-Åsberg Depression Rating Scale (MADRS), Patient's Global Impression of Severity scale (PGI-S), Patient's Global Impression of Improvement scale (PGI-I)), and additional psychological measures (e.g., Columbia-Suicide Severity Rating Scale (C-SSRS), Brief Psychiatric Rating Scale (BPRS)) were recorded at different time points. Psychological support via a psychologist and/or psychiatrist was available to the patients throughout the study, but no specific psychotherapy was applied, and no additional psychoactive medication was provided.
# Two patients with major depressive disorder diagnosed by a psychiatrist according to DSM-5 diagnostic criteria were recruited into the study (Example 2, Table 1). The patients were considered treatment-resistant because they had not shown adequate improvement to at least two adequate courses of pharmacological therapy in the current episode of depression.
# [1] = Patient 1, 2 hours after 12 mg inhaled
# [2] = Patient 1, 2 hours after 12 mg inhaled, baseline 1
# [3] = Patient 1, 2 hours after 12 mg inhaled, baseline 5
# [4] = Patient 1, 1 day after 12 mg inhaled
# [5] = Patient 1, 1 day after 12 mg inhaled, baseline 1
# [6] = Patient 1, 1 day after 12 mg inhaled, baseline 5
# [7] = Patient 1, 7 days after 12 mg inhaled
# [8] = Patient 1, 7 days after 12 mg inhaled, baseline 1
# [9] = Patient 1, 7 days after 12 mg inhaled, baseline 5
# [10] = Patient 2, 2 hours after 12 mg inhaled
# [11] = Patient 2, 2 hours after 12 mg inhaled, baseline 5
# [12] = Patient 2, 1 day after 12 mg inhaled
# [13] = Patient 2, 1 day after 12 mg inhaled, baseline 5
# [14] = Patient 2, 7 days after 12 mg inhaled
# [15] = Patient 2, 7 days after 12 mg inhaled, baseline 5
# [16] = both patients, all assessment time points after 12 mg inhaled
# [17] = single dose of 12 mg via inhalation
smiles,measurement,setting,value
"COc1ccc2[nH]cc(CCN(C)C)c2c1 [5-MeO-DMT, 5-methoxy-N,N-dimethyltryptamine]",% MADRS change vs. baseline,[1],−68%
same,PGI-I,[1],1
same,MADRS suicidal thoughts item,[2],0
same,BPRS Unusual thought content,[2],1
same,BPRS Somatic concern,"Patient 1, 2 hours after 12 mg inhaled, baseline 3",2
same,BPRS Tension,"Patient 1, 2 hours after 12 mg inhaled, baseline 4",3
same,PGI-S,[3],1
same,BPRS Guilt feelings,[3],1
same,BPRS Depressive Mood,"Patient 1, 2 hours after 12 mg inhaled, baseline 6",2
same,BPRS Anxiety,"Patient 1, 2 hours after 12 mg inhaled, baseline 7",2
same,MADRS,"Patient 1, 2 hours after 12 mg inhaled, baseline 31",10
same,BPRS (total),"Patient 1, 2 hours after 12 mg inhaled, baseline 42",27
same,C-SSRS Suicidal Ideation,"Patient 1, 2 hours after 12 mg inhaled, baseline Yes",No
same,% MADRS change vs. baseline,[4],−74%
same,PGI-I,[4],1
same,MADRS suicidal thoughts item,[5],0
same,BPRS Unusual thought content,[5],1
same,BPRS Somatic concern,"Patient 1, 1 day after 12 mg inhaled, baseline 3",1
same,BPRS Tension,"Patient 1, 1 day after 12 mg inhaled, baseline 4",1
same,PGI-S,[6],1
same,BPRS Guilt feelings,[6],1
same,BPRS Depressive Mood,"Patient 1, 1 day after 12 mg inhaled, baseline 6",1
same,BPRS Anxiety,"Patient 1, 1 day after 12 mg inhaled, baseline 7",1
same,MADRS,"Patient 1, 1 day after 12 mg inhaled, baseline 31",8
same,BPRS (total),"Patient 1, 1 day after 12 mg inhaled, baseline 42",18
same,C-SSRS Suicidal Ideation,"Patient 1, 1 day after 12 mg inhaled, baseline Yes",No
same,% MADRS change vs. baseline,[7],−90%
same,PGI-I,[7],1
same,MADRS suicidal thoughts item,[8],0
same,BPRS Unusual thought content,[8],1
same,BPRS Somatic concern,"Patient 1, 7 days after 12 mg inhaled, baseline 3",1
same,BPRS Tension,"Patient 1, 7 days after 12 mg inhaled, baseline 4",1
same,PGI-S,[9],1
same,BPRS Guilt feelings,[9],1
same,BPRS Depressive Mood,"Patient 1, 7 days after 12 mg inhaled, baseline 6",1
same,BPRS Anxiety,"Patient 1, 7 days after 12 mg inhaled, baseline 7",1
same,MADRS,"Patient 1, 7 days after 12 mg inhaled, baseline 31",3
same,BPRS (total),"Patient 1, 7 days after 12 mg inhaled, baseline 42",18
same,C-SSRS Suicidal Ideation,"Patient 1, 7 days after 12 mg inhaled, baseline Yes",No
same,% MADRS change vs. baseline,[10],−73%
same,PGI-I,[10],2
same,MADRS suicidal thoughts item,"Patient 2, 2 hours after 12 mg inhaled, baseline 1",0
same,BPRS Tension,"Patient 2, 2 hours after 12 mg inhaled, baseline 3",1
same,BPRS Somatic concern,"Patient 2, 2 hours after 12 mg inhaled, baseline 4",1
same,PGI-S,[11],1
same,BPRS Anxiety,[11],2
same,BPRS Depressive Mood,[11],3
same,BPRS Guilt feelings,[11],1
same,BPRS Unusual thought content,"Patient 2, 2 hours after 12 mg inhaled, baseline 6",1
same,MADRS,"Patient 2, 2 hours after 12 mg inhaled, baseline 33",9
same,BPRS (total),"Patient 2, 2 hours after 12 mg inhaled, baseline 45",26
same,C-SSRS Suicidal Ideation,"Patient 2, 2 hours after 12 mg inhaled, baseline No",No
same,% MADRS change vs. baseline,[12],−85%
same,PGI-I,[12],2
same,MADRS suicidal thoughts item,"Patient 2, 1 day after 12 mg inhaled, baseline 1",1
same,BPRS Tension,"Patient 2, 1 day after 12 mg inhaled, baseline 3",1
same,BPRS Somatic concern,"Patient 2, 1 day after 12 mg inhaled, baseline 4",1
same,PGI-S,[13],1
same,BPRS Anxiety,[13],1
same,BPRS Depressive Mood,[13],1
same,BPRS Guilt feelings,[13],1
same,BPRS Unusual thought content,"Patient 2, 1 day after 12 mg inhaled, baseline 6",1
same,MADRS,"Patient 2, 1 day after 12 mg inhaled, baseline 33",5
same,BPRS (total),"Patient 2, 1 day after 12 mg inhaled, baseline 45",19
same,C-SSRS Suicidal Ideation,"Patient 2, 1 day after 12 mg inhaled, baseline No",No
same,% MADRS change vs. baseline,[14],−85%
same,PGI-I,[14],2
same,MADRS suicidal thoughts item,"Patient 2, 7 days after 12 mg inhaled, baseline 1",0
same,BPRS Tension,"Patient 2, 7 days after 12 mg inhaled, baseline 3",1
same,BPRS Somatic concern,"Patient 2, 7 days after 12 mg inhaled, baseline 4",1
same,PGI-S,[15],1
same,BPRS Anxiety,[15],1
same,BPRS Depressive Mood,[15],1
same,BPRS Guilt feelings,[15],1
same,BPRS Unusual thought content,"Patient 2, 7 days after 12 mg inhaled, baseline 6",1
same,MADRS,"Patient 2, 7 days after 12 mg inhaled, baseline 33",5
same,BPRS (total),"Patient 2, 7 days after 12 mg inhaled, baseline 45",18
same,C-SSRS Suicidal Ideation,"Patient 2, 7 days after 12 mg inhaled, baseline No",No
same,standard criteria for MADRS remission (MADRS total score equal or less than 10),[16],fulfilled
same,standard criteria for MADRS response (at least 50% improvement from baseline),[16],fulfilled
same,time to clinical remission after a single 5-MeO-DMT administration,[17],≤ 2 h
same,time to clinical response after 5-MeO-DMT administration,[17],≤ 2 h
